Test results: patent US8354403B2, “Pyrrolidine derived beta 3 adrenergic receptor agonists” (Merck Sharp & Dohme Corp., priority 2009, dated 2013)

These compounds were tested against T1, human β3 adrenergic receptor (Homo sapiens, UniProt P13945) (assay: Beta-3 agonist in vitro functional assay: cAMP production (LANCE TR-FRET) in CHO cells stably transfected with the cloned β3 receptor). Conditions: Table 4; cAMP, CHO cells; read-out: Human β3 agonist functional activity.
T1 construct: expressed in transfected cells; host or cells: Chinese hamster ovary (CHO) cells, stably transfected
Format: cell-based
Experimental: Chinese hamster ovary (CHO) cells, stably transfected with the cloned β-adrenergic receptor (β1, β2 or β3) are harvested after 3 days of subculturing. Harvesting of cells is done with Enzyme-free Dissociation Media (Specialty Media). Cells are then counted and resuspended in assay buffer (Hank's Balanced salt solution supplemented with 5 mM HEPES, […]) containing a phosphodiesterase inhibitor (IBMX, 0.6 mM). The reaction is initiated by mixing 6,000 cells in 6 μL with 6 μL Alexa Fluor labeled cAMP antibody (LANCE™ kit) which is then added to an assay well containing 12 μL of compound (diluted in assay buffer to 2× final concentration). The reaction proceeds for 30 minutes at RT and is terminated by the addition of 24 ul detection buffer (LANCE™ kit). The assay plate is then incubated for 1 h at RT and time-resolved fluorescence measured on a Perkin Elmer Envision reader or equivalent. The unknown cAMP level is determined by comparing fluorescence levels to a cAMP standard curve.
The non-selective, full agonist β-adrenergic ligand isoproterenol is used at all three receptors to determine maximal stimulation. […] Data are analyzed using Microsoft Excel and Graphpad Prism or an internally developed data analysis software package.

T1 sequence (P13945 whole entry): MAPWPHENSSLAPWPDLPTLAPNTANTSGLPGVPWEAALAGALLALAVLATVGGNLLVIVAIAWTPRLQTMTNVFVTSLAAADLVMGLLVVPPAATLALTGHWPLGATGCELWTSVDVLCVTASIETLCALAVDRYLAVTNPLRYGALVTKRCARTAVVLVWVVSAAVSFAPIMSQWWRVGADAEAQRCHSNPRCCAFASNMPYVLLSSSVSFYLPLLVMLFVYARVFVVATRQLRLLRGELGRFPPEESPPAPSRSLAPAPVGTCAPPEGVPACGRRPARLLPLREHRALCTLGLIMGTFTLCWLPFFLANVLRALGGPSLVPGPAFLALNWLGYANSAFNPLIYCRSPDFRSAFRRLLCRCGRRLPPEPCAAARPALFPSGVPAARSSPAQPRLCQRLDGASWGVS

EC50 [nM] | Structure (SMILES)
100 to 999 | O=C(c1ccc(C[C@@H]2CC[C@H]([C@H](O)c3ccccc3)N2)cc1)N1CC(Oc2cncc(Cl)n2)C1 [Example 3]
100 to 999 | CC1(O)CCN(C(=O)c2ccc(C[C@@H]3CC[C@H]([C@H](O)c4ccccc4)N3)cc2)C1 (stereo partly shown) [Example 12]
999 to 3000 | O=C(c1ccc(C[C@@H]2CC[C@H]([C@H](O)c3ccccc3)N2)cc1)N1CCc2onc(O)c2C1 [Example 53]
100 to 999 | O=C(c1ccc(C[C@@H]2CC[C@H]([C@H](O)c3cccnc3)N2)cc1)N1CCCC1c1ccccc1F (stereo partly shown) [Example 16]
10 to 99.9 | O=C(c1ccc(C[C@@H]2CC[C@H]([C@H](O)c3ccccc3)N2)cc1)N1CCC2c3cccnc3OC2C1 (stereo partly shown) [Example 58]
100 to 999 | Cc1nc2c(s1)CCN(C(=O)c1ccc(C[C@@H]3CC[C@H]([C@H](O)c4ccccc4)N3)cc1)C2 [Example 52]

Same assay, conditions: Table 5; cAMP, CHO cells; read-out: Human β3 agonist functional activity

EC50 [nM] | Structure (SMILES)
100 to 999 | CN(C)C(=O)c1cc(OC2CCN(C(=O)c3ccc(C[C@@H]4CC[C@H]([C@H](O)c5ccccc5)N4)cc3)CC2)no1 [Example 158]
100 to 999 | O=C(c1ccc(C[C@@H]2CC[C@H]([C@H](O)c3ccccc3)N2)cc1)N1CCC(Cn2cnccc2=O)CC1 [Example 149]
100 to 999 | Cc1nc(C2CCN(C(=O)c3ccc(C[C@@H]4CC[C@H]([C@H](O)c5ccccc5)N4)cc3)CC2)ns1 [Example 89]
100 to 999 | Cn1cnnc1C1CCN(C(=O)c2ccc(C[C@@H]3CC[C@H]([C@H](O)c4ccccc4)N3)cc2)CC1 [Example 98]
10 to 99.9 | O=C(c1ccc(C[C@@H]2CC[C@H]([C@H](O)c3ccccc3)N2)cc1)N1CCC(c2cccc(F)n2)CC1 [Example 112]
100 to 999 | Cc1cncnc1OC1CCN(C(=O)c2ccc(C[C@@H]3CC[C@H]([C@H](O)c4ccccc4)N3)cc2)CC1 [Example 153]
10 to 99.9 | O=C(c1ccc(C[C@@H]2CC[C@H]([C@H](O)c3ccccc3)N2)cc1)N1CCC(n2cnnn2)CC1 [Example 100]
10 to 99.9 | Nc1nnc(C2CCN(C(=O)c3ccc(C[C@@H]4CC[C@H]([C@H](O)c5ccccc5)N4)cc3)CC2)o1 [Example 99]

Same assay, conditions: Table 8; Beta-3 agonist in vitro functional assay; read-out: Human β3 agonist functional activity

EC50 [nM] | Structure (SMILES)
10 to 99.9 | O=C1NC(=O)C2(CCN(C(=O)c3ccc(C[C@@H]4CC[C@H]([C@H](O)c5ccccc5)N4)cc3)CC2)N1 [Example 267]
10 to 99.9 | O=C1OC2(CCN(C(=O)c3ccc(C[C@@H]4CC[C@H]([C@H](O)c5ccccc5)N4)cc3)CC2)c2ccccc21 [Example 283]
10 to 99.9 | CC(C)COc1ccc2c(c1)C(=O)CC1(CCN(C(=O)c3ccc(C[C@@H]4CC[C@H]([C@H](O)c5ccccc5)N4)cc3)CC1)O2 [Example 324]
100 to 999 | Cn1nnnc1C1(C)CCN(C(=O)c2ccc(C[C@@H]3CC[C@H]([C@H](O)c4ccccc4)N3)cc2)CC1 [Example 244]
10 to 99.9 | COc1ccc2c(n1)C1(CCN(C(=O)c3ccc(C[C@@H]4CC[C@H]([C@H](O)c5ccccc5)N4)cc3)CC1)OC2=O [Example 288]
100 to 999 | O=C(c1ccc(C[C@@H]2CC[C@H]([C@H](O)c3ccccc3)N2)cc1)N1CCC2(CC1)CCN(c1ccccc1)C2=O [Example 254]
100 to 999 | CON=C1CCCC12CCN(C(=O)c1ccc(CC3CCC(C(O)c4ccccc4)N3)cc1)CC2 (stereo not shown) [Example 318]

Same assay, conditions: Table 9; Beta-3 agonist in vitro functional assay; read-out: Human β3 agonist functional activity

Structure (SMILES) | EC50 [nM]
O=C(c1ccc(C[C@@H]2CC[C@H]([C@H](O)c3ccccc3)N2)cc1)N1CCN(c2noc3ccccc23)CC1 [Example 385] | 10 to 99.9
O=C(c1ccc(C[C@@H]2CC[C@H]([C@H](O)c3ccccc3)N2)cc1)N1CCN(c2ccc[nH]c2=O)CC1 [Example 387] | 10 to 99.9
O=C(c1ccc(C[C@@H]2CC[C@H]([C@H](O)c3ccccc3)N2)cc1)N1CCN(c2cc3ccccc3cn2)CC1 [Example 374] | 100 to 999
O=C(O)c1cccnc1N1CCN(C(=O)c2ccc(C[C@@H]3CC[C@H]([C@H](O)c4ccccc4)N3)cc2)CC1 [Example 365] | 100 to 999
CCOc1cccnc1N1CCN(C(=O)c2ccc(C[C@@H]3CC[C@H]([C@H](O)c4ccccc4)N3)cc2)CC1 [Example 362] | 10 to 99.9
CC(C)Oc1cccnc1N1CCN(C(=O)c2ccc(C[C@@H]3CC[C@H]([C@H](O)c4ccccc4)N3)cc2)CC1 [Example 363] | 10 to 99.9

The remaining lines, values ahead:

EC50 [nM] | Structure (SMILES)
100 to 999 | O=C(O)CN1CCN(C(=O)c2ccc(C[C@@H]3CC[C@H]([C@H](O)c4ccccc4)N3)cc2)CC1 [Example 390]
10 to 99.9 | O=C(c1ccc(C[C@@H]2CC[C@H]([C@H](O)c3ccccc3)N2)cc1)N1CCN(Cc2nccc3ccccc23)CC1 [Example 429]
100 to 999 | O=C(c1ccc(C[C@@H]2CC[C@H]([C@H](O)c3ccccc3)N2)cc1)N1CCN(C2(c3ccccn3)CC2)CC1 [Example 420]
10 to 99.9 | CC(c1cnccn1)N1CCN(C(=O)c2ccc(C[C@@H]3CC[C@H]([C@H](O)c4ccccc4)N3)cc2)CC1 (stereo partly shown) [Example 428]
10 to 99.9 | CC(c1ncccc1F)N1CCN(C(=O)c2ccc(C[C@@H]3CC[C@H]([C@H](O)c4ccccc4)N3)cc2)CC1 (stereo partly shown) [Example 425]
10 to 99.9 | CC(c1nnco1)N1CCN(C(=O)c2ccc(C[C@@H]3CC[C@H]([C@H](O)c4ccccc4)N3)cc2)CC1 (stereo partly shown) [Example 421]
10 to 99.9 | O=C(c1ccc(C[C@@H]2CC[C@H]([C@H](O)c3ccccc3)N2)cc1)N1CCN(Cc2ncccc2Br)CC1 [Example 416]

Same assay, conditions: Table 10; Beta-3 agonist in vitro functional assay; read-out: Human β3 agonist functional activity

EC50 [nM] | Structure (SMILES)
10 to 99.9 | CCc1noc(CNC(=O)C(C)N2CCN(C(=O)c3ccc(C[C@@H]4CC[C@H]([C@H](O)c5ccccc5)N4)cc3)CC2)n1 (stereo partly shown) [Example 465]
100 to 999 | CC(C(=O)N1CCOCC1)N1CCN(C(=O)c2ccc(C[C@@H]3CC[C@H]([C@H](O)c4ccccc4)N3)cc2)CC1 (stereo partly shown) [Example 499]
1 to 9.9 | CC(C(=O)N1CCc2ccc(Cl)cc2C1)N1CCN(C(=O)c2ccc(C[C@@H]3CC[C@H]([C@H](O)c4ccccc4)N3)cc2)CC1 (stereo partly shown) [Example 510]
10 to 99.9 | CC(C(=O)N1CCc2ncccc2C1)N1CCN(C(=O)c2ccc(C[C@@H]3CC[C@H]([C@H](O)c4ccccc4)N3)cc2)CC1 (stereo partly shown) [Example 507]
100 to 999 | CC(C)CCNC(=O)C(C)N1CCN(C(=O)c2ccc(C[C@@H]3CC[C@H]([C@H](O)c4ccccc4)N3)cc2)CC1 (stereo partly shown) [Example 438]
10 to 99.9 | CC(C(=O)N1C(C)CCC1C)N1CCN(C(=O)c2ccc(C[C@@H]3CC[C@H]([C@H](O)c4ccccc4)N3)cc2)CC1 (stereo partly shown) [Example 479]
10 to 99.9 | CCCCN(C)C(=O)C(C)N1CCN(C(=O)c2ccc(C[C@@H]3CC[C@H]([C@H](O)c4ccccc4)N3)cc2)CC1 (stereo partly shown) [Example 514]

Same assay, conditions: Table 12; human β3 functional activity given as ranges; read-out: Human β3 agonist functional activity

EC50 [nM] | Structure (SMILES)
10 to 99.9 | O=C(c1ccc(CC2CCC(C(O)c3ccccc3)N2)cc1)N1CCC2(CC1)CC(C(F)(F)F)OC2=O (single isomer, unassigned) [Example 566]
1 to 9.9 | O=C1CC(c2ccccc2)C2(CCN(C(=O)c3ccc(CC4CCC(C(O)c5cccnc5)N4)cc3)CC2)O1 (single isomer, unassigned) [Example 560]

Same assay, conditions: given as a range; cAMP, CHO cells; read-out: human β3 functional activity

EC50 [nM] | Structure (SMILES)
1 to 9.9 | O=C(c1ccc(C[C@@H]2CC[C@H]([C@H](O)c3ccccc3)N2)cc1)N1CCC2(CCOC2=O)CC1 [Example 239, 8-[4-({(2S,5R)-5-[(R)-hydroxy(phenyl)methyl]pyrrolidin-2-yl}methyl)benzoyl]-2-oxa-8-azaspiro[4.5]decan-1-one]
1 to 9.9 | O=C(c1ccc(C[C@@H]2CC[C@H]([C@H](O)c3ccccc3)N2)cc1)N1C[C@@H]2[C@H](C1)[C@H]2c1nnco1 [Example 170]
1 to 9.9 | O=C(c1ccc(CC2CCC(C(O)c3ccccc3)N2)cc1)N1CCC2(CC1)CC(C1CC1)OC2=O (single isomer, unassigned) [Ex. 554]
